Laboratory results reported in patent publication US9974775B2, “Substituted imidazoles as N-type calcium channel blockers” (Janssen Pharmaceutica NV, priority 2013, dated 2018).
pIC50: −log10 of the molar value.

Biological target: human N-type Ca channel (Homo sapiens, UniProt Q00975)
Test: Measurement of electrophysiological response (QPatch)
[1] = concentration range 0.01-0.3 μM

Sequence of human N-type Ca channel (Q00975 whole entry): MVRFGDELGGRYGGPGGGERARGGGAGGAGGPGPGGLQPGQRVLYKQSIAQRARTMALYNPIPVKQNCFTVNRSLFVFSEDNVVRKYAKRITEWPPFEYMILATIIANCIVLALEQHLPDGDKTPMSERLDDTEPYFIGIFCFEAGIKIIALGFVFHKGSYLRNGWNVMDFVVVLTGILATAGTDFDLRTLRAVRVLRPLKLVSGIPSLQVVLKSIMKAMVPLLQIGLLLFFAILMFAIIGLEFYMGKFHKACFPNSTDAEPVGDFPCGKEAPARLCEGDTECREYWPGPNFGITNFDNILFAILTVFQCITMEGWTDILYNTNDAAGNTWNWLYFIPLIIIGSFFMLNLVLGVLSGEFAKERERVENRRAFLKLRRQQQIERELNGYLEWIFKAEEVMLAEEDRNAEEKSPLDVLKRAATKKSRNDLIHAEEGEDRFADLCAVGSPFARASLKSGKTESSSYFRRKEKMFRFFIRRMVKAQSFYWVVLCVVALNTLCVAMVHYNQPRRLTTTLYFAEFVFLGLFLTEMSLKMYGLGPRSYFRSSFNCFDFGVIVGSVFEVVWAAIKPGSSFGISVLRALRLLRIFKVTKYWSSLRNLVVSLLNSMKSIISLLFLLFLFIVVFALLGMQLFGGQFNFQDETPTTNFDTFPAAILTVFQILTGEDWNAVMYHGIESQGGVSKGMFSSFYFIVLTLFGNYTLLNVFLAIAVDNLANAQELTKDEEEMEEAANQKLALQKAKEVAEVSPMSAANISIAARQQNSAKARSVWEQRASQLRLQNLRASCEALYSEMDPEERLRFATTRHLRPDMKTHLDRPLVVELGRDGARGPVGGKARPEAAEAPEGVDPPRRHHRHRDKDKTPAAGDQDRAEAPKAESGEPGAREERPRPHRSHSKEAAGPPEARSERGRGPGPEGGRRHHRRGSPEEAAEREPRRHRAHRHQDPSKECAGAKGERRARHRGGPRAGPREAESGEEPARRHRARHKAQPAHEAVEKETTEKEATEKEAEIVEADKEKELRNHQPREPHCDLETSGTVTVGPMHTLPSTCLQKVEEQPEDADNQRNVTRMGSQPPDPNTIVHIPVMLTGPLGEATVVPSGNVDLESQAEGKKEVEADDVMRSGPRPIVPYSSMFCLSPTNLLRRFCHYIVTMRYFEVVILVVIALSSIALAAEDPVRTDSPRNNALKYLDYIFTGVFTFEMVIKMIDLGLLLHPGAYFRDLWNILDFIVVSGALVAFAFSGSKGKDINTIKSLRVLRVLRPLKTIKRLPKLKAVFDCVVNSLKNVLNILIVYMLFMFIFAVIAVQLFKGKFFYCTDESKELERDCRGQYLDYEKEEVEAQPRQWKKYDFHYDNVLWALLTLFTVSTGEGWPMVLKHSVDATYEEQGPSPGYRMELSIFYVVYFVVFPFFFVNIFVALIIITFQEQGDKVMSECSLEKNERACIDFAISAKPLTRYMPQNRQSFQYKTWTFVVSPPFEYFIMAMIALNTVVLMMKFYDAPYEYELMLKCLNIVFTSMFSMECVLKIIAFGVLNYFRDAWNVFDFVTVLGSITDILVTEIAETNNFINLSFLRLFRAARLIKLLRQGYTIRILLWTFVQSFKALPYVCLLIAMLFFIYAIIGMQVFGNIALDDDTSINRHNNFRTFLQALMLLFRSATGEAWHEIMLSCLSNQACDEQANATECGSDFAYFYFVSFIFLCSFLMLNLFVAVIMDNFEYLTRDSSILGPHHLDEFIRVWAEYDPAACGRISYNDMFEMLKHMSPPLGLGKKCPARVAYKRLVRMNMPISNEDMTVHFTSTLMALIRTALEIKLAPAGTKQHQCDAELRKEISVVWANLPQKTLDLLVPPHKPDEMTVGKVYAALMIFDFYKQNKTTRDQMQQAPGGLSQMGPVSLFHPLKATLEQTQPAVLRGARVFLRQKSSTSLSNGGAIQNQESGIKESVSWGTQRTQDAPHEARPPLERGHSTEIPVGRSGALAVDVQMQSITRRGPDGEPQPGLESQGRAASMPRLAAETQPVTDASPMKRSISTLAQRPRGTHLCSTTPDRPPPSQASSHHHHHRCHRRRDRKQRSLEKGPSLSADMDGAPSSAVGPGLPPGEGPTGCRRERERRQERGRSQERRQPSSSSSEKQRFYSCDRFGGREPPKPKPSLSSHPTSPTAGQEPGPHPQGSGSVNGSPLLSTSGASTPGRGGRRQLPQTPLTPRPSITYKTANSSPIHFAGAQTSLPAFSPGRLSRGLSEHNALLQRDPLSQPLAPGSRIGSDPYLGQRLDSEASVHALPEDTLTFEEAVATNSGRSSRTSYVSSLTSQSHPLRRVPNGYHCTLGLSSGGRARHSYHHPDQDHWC
Sequence of human N-type Ca channel (P54284 whole entry partner): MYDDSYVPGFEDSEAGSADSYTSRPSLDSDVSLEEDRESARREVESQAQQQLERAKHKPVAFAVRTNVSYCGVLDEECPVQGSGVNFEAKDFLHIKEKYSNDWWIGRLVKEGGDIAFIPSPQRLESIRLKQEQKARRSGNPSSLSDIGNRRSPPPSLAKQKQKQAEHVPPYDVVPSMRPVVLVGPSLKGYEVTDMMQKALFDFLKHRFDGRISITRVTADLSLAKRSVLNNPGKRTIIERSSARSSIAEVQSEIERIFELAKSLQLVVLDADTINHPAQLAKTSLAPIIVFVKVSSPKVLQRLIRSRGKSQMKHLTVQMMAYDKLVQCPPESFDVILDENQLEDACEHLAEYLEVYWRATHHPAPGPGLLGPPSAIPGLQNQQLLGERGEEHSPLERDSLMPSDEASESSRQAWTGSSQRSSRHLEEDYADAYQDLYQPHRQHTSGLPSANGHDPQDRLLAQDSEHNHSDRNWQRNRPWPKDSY
Sequence of human N-type Ca channel (P54289 25-956 partner limits assumed): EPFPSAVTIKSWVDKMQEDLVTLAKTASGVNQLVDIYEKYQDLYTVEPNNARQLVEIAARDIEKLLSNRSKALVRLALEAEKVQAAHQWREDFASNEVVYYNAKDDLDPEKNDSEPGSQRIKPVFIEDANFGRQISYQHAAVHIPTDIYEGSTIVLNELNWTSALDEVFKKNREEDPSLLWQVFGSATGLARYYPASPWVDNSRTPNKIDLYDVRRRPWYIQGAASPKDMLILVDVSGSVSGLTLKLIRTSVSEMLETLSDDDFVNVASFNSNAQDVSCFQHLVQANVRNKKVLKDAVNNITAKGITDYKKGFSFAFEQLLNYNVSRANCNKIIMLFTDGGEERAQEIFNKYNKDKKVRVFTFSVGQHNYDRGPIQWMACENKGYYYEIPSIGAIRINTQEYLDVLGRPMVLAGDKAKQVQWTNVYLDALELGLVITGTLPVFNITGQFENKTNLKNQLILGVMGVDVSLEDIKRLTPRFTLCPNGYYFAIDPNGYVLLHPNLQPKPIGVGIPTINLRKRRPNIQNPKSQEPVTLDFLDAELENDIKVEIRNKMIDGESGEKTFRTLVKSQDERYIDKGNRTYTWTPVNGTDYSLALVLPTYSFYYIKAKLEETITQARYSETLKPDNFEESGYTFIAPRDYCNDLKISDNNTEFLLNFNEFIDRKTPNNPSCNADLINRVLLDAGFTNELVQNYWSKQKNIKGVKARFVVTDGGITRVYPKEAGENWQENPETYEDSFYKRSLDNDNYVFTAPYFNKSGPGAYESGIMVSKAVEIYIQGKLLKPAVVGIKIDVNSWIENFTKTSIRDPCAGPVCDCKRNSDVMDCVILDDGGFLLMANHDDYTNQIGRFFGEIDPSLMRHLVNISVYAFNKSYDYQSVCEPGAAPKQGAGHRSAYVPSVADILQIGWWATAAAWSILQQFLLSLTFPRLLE
Sequence of human N-type Ca channel (P54289 957-1103 partner limits assumed): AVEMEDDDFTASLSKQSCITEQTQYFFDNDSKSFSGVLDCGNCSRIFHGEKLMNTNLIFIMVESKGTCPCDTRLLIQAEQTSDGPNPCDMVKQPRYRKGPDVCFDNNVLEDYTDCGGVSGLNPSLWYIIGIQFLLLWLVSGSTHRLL
Method: The recombinant cell line described above was used in the measurement of electrophysiological properties with QPatch (Sophion). […] Prior to the experiment, the flasks were moved to 30° C. and incubated for 48-72 hrs. On the day of assaying, cells were detached and harvested. The cell pellet was re-suspended in SMF4HEK (HyClone)/25 mM HEPS at 2-5 million/mL and placed on the QStirrer of the QPatch for 30-60 min prior to the start of the assay. […] Microtiter-Plate/Reference Buffer contained 140 mM TEA-Cl, 10 mM BaCl2, 0.8 mM MgCl2, 10 mM HEPES pH˜7.4 adjusted with TEA-OH/HCl, and ˜300 mOsm. Cells were transferred to a QPatch 48 plate and gigaseal was formed. The plate was perfused with intracellular and extracellular buffer. […] In brief, cells were depolarized from resting potential of −80 mV to +20 mV and current was recorded. Data was plotted as percent inhibition vs concentration of the compound and IC50 values were generated using Graphpad Prism non-linear regression analysis.

Row | Structure (SMILES) | N Type IC50 Data Qpatch Pulse = 1 [1] | N Type IC50 Data Qpatch Pulse = 15 [1] | further results
1 | COc1ccccc1-c1nc(C2CC(C)(C)OC(C)(C)C2)c(C)n1-c1ccc(Cl)cc1 [Cpd 90, 1-(4-chlorophenyl)-2-(2-methoxyphenyl)-5-methyl-4-(2,2,6,6-tetramethyltetrahydro-2H-pyran-4-yl)-1H-imidazole] | poor fit | poor fit | 
2 | COc1nccnc1-c1nc(C2CC(C)(C)OC(C)(C)C2)cn1-c1ccc(C#N)cc1 [Cpd 87, 4-[2-(3-Methoxypyrazin-2-yl)-4-(2,2,6,6-tetramethyltetrahydro-2H-pyran-4-yl)-1H-imidazol-1-yl]benzonitrile] | poor fit | poor fit | 
3 | CCOc1nccnc1-c1nc(C2CC(C)(C)OC(C)(C)C2)cn1-c1ccc(Cl)cc1 [Cpd 60, 2-[1-(4-Chlorophenyl)-4-(2,2,6,6-tetramethyltetrahydro-2H-pyran-4-yl)-1H-imidazol-2-yl]-3-ethoxypyrazine] |  | poor fit | 
4 | COc1ncccc1-c1nc(C2CC(C)(C)OC(C)(C)C2)cn1Cc1ccccc1Cl [Cpd 27, 3-[1-(2-Chlorobenzyl)-4-(2,2,6,6-tetramethyltetrahydro-2H-pyran-4-yl)-1H-imidazol-2-yl]-2-methoxypyridine] | poor fit |  | 
5 | COc1ncccc1-c1nc(C2CC(C)(C)OC(C)(C)C2)cn1Cc1ccc(Cl)cc1 [Cpd 28, 3-[1-(4-Chlorobenzyl)-4-(2,2,6,6-tetramethyltetrahydro-2H-pyran-4-yl)-1H-imidazol-2-yl]-2-methoxypyridine] | poor fit | poor fit | 
6 | COc1ncccc1-c1nc(C2CC(C)(C)OC(C)(C)C2)cn1-c1cc(F)cc(F)c1 [Cpd 72, 3-(1-(3,5-difluorophenyl)-4-(2,2,6,6-tetramethyltetrahydro-2H-pyran-4-yl)-1H-imidazol-2-yl)-2-methoxypyridine] |  |  | N Type IC50 Data Qpatch Pulse = 1 (concentration range 0.01-1 μM): poor fit; N Type IC50 Data Qpatch Pulse = 15 (concentration range 0.01-1 μM): poor fit
7 | COc1ccc(-n2cc(C3CC(C)(C)OC(C)(C)C3)nc2-c2cccnc2OC)cc1C#N [Cpd 85, 2-Methoxy-5-[2-(2-methoxypyridin-3-yl)-4-(2,2,6,6-tetramethyltetrahydro-2H-pyran-4-yl)-1H-imidazol-1-yl]benzonitrile] |  |  | Qpatch Pulse = 1 (percent inhibition) (concentration range 0.01-1 μM): 45%
8 | COc1ncccc1-c1nc(C2CC(C)(C)OC(C)(C)C2)cn1-c1ccc(Cl)c(C#N)c1 [Cpd 84, 2-Chloro-5-[2-(2-methoxypyridin-3-yl)-4-(2,2,6,6-tetramethyltetrahydro-2H-pyran-4-yl)-1H-imidazol-1-yl]benzonitrile] |  |  | Qpatch Pulse = 1 (percent inhibition) (concentration range 0.01-1 μM): 39%
9 | COc1ncccc1-c1nc(C2CC(C)(C)OC(C)(C)C2)cn1-c1ccc(C#N)c(C(F)(F)F)c1 [Cpd 29, 4-(2-(2-methoxypyridin-3-yl)-4-(2,2,6,6-tetramethyltetrahydro-2H-pyran-4-yl)-1H-imidazol-1-yl)-2-(trifluoromethyl)benzonitrile] | poor fit | poor fit | 
10 | COc1ncncc1-c1nc(C2CC(C)(C)OC(C)(C)C2)cn1-c1ccc(C#N)cc1 [Cpd 86, 4-[2-(4-Methoxypyrimidin-5-yl)-4-(2,2,6,6-tetramethyltetrahydro-2H-pyran-4-yl)-1H-imidazol-1-yl]benzonitrile] |  |  | Qpatch Pulse = 1 (percent inhibition) (concentration range 0.01-1 μM): 28%
11 | COc1ccccc1-c1nc(C2CC(C)(C)OC(C)(C)C2)cn1-c1ccc(C)nc1 [Cpd 5, 5-[2-(2-Methoxyphenyl)-4-(2,2,6,6-tetramethyltetrahydro-2H-pyran-4-yl)-1H-imidazol-1-yl]-2-methylpyridine] |  |  | pIC50 (N Type IC50 Data Qpatch Pulse = 15, Pulse = 15, concentration range 0.3-10 μM): ≤ 5.00
